In assay [1] the target is human CB2 receptor (hCB2) (Homo sapiens, UniProt P34972). Briefly: cAMP assay, agonist/inverse agonist activity at human CB2 receptor. In kind it is cell-based. The protocol:
(§1) TR-FRET was measured using a 330-380 nm excitation filter, 615 nm and 665 nm emission filters, dichroic mirror 380 nm and Z=10 mm. cAMP concentrations in each well were back-calculated from a cAMP standard curve run concurrently during each assay. Each plate contained 16 wells of forskolin stimulated cells and 16 wells of forskolin plus 1 μM CP55,940-treated cells. Concentrations of cAMP were expressed as a percent of the difference of these two groups of wells.
On the technique in general: Changes in cAMP serve as a functional read-out for many G protein-coupled receptors.

Assay [2] deals with human CB1 receptor (hCB1) (Homo sapiens, UniProt P21554). The assay is described as follows: cAMP assay, agonist/inverse agonist activity at human CB1 receptor. In kind it is cell-based. The settings on record: hCB1R, read-out: EC50 at hCB1R (Potency at Human CB1 determined by cAMP Assay). The procedure: The ability of each of the compounds to act as agonists or inverse agonists at human CB2 and CB 1 receptors (hCB2, hCB 1, respectively) and at the rat CB2 receptor (rCB2) was determined by measuring changes in intracellular cyclic AMP (cAMP) levels as described in U.S. Pat. No. 7,517,874.
Sequence of human CB1 receptor (hCB1) (P21554 whole entry): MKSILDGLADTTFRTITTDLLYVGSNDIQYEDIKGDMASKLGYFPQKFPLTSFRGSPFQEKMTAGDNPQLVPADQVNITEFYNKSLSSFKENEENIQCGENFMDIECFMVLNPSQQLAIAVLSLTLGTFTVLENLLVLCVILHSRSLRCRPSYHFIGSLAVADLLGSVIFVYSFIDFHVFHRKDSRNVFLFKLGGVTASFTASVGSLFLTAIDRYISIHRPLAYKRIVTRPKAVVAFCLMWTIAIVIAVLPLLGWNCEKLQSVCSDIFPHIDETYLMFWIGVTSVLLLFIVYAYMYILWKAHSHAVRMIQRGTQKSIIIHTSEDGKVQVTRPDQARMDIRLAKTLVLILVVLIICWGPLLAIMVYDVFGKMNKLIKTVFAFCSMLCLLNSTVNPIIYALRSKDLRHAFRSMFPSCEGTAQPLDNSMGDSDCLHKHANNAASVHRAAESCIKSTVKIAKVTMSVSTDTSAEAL
as §1, with “wells. Concentration-response data including EC50 (the concentration of compound producing 50% of the maximal response) and intrinsic activity (the percent maximal activation compared to full activation by CP55,940) were determined using a four-parameter non-linear regression algorithm (CambridgeSoft Bioassay).” for “wells.”

[3] abbreviates: hCB2R, cAMP assay, read-out: EC50 at hCB2R (Potency at Human CB2 determined by cAMP Assay).

This passage reports EC50 results from patent US8653127B2, “Bicyclic pyrazolo-heterocycles” (Cara Therapeutics, Inc., priority 2009, dated 2014).

Like-named read-outs stand apart in the source and are kept apart here.

Sequence of human CB2 receptor (hCB2) (P34972 whole entry): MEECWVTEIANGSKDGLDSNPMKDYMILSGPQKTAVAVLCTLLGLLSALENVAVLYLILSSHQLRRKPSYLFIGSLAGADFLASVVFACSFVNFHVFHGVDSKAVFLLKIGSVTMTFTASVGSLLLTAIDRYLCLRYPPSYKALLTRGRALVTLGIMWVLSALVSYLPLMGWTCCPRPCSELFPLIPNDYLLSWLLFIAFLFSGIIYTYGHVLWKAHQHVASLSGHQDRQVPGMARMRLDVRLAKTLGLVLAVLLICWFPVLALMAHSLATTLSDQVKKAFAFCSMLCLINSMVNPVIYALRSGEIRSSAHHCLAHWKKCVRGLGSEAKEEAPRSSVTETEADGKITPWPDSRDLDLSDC

`CNC(=O)[C@@H](NC(=O)n1nc(-c2cc(C(F)(F)F)ccc2F)c2c1CCN(C)C2)C(C)(C)C` [Compound 59, (S)-N-(3,3-dimethyl-1-(methylamino)-1-oxobutan-2-yl)-3-(2-fluoro-5-(trifluoromethyl)phenyl)-5-methyl-4,5,6,7-tetrahydro-1H-pyrazolo[4,3-c]pyridine-1-carboxamide]: the EC50 in assay [1] and in assay [2] was less than 1000 nM in each case.

In the case of `CC(C)(C)[C@H](NC(=O)n1nc(-c2ccc(F)c(F)c2)c2c1CCOC2)C(=O)NCCC#N` [Compound 104, (S)-N-(1-(2-cyanoethylamino)-3,3-dimethyl-1-oxobutan-2-yl)-3-(3,4-difluorophenyl)-6,7-dihydropyrano[4,3-c]pyrazole-1(4H)-carboxamide], the EC50 in assay [1] and in assay [2] was less than 1000 nM each time.

In the case of `Cc1cc(NC(=O)[C@@H](NC(=O)n2nc(-c3ccc(F)c(F)c3)c3c2CCOC3)C(C)(C)C)n[nH]1` [Compound 105, (S)-3-(3,4-difluorophenyl)-N-(3,3-dimethyl-1-(5-methyl-1H-pyrazol-3-ylamino)-1-oxobutan-2-yl)-6,7-dihydropyrano[4,3-c]pyrazole-1(4H)-carboxamide], the EC50 in assay [1] and in assay [2] was less than 1000 nM throughout.

In the case of `Cc1cnc(CNC(=O)[C@@H](NC(=O)n2nc(-c3ccc(F)c(F)c3)c3c2CCOC3)C(C)(C)C)cn1` [Compound 106, (S)-3-(3,4-difluorophenyl)-N-(3,3-dimethyl-1-((5-methylpyrazin-2-yl)methylamino)-1-oxobutan-2-yl)-6,7-dihydropyrano-[4,3-c]pyrazole-1(4H)-carboxamide], the EC50 in assay [1] (setting [3]) and in assay [2] was less than 1000 nM in each case.

In the case of `CC(C)(C)[C@H](NC(=O)n1nc(-c2ccc(F)c(F)c2)c2c1CCOC2)C(=O)N1CCN(c2ncccn2)CC1` [Compound 107, (S)-3-(3,4-difluorophenyl)-N-(3,3-dimethyl-1-oxo-1-(4-(pyrimidin-2-yl)piperazin-1-yl)butan-2-yl)-6,7-dihydropyrano[4,3-c]pyrazole-1(4H)-carboxamide], the EC50 in assay [1] (setting [3]) and in assay [2] was less than 1000 nM in each case.

As to `CC(C)(C)[C@H](NC(=O)n1nc(-c2ccc(F)c(F)c2)c2c1CCOC2)C(=O)N1CCN(c2nccs2)CC1` [Compound 108, (S)-3-(3,4-difluorophenyl)-N-(3,3-dimethyl-1-oxo-1-(4-(thiazol-2-yl)piperazin-1-yl)butan-2-yl)-6,7-dihydropyrano[4,3-c]pyrazole-1(4H)-carboxamide], the EC50 in assay [1] and in assay [2] was less than 1000 nM each time.

For `CC(C)(C)[C@H](NC(=O)n1nc(-c2ccc(F)c(F)c2)c2c1CCOC2)C(=O)N1CCC[C@H]1CO` [Compound 109, 3-(3,4-difluorophenyl)-N-((S)-1-((S)-2-(hydroxymethyl)pyrrolidin-1-yl)-3,3-dimethyl-1-oxobutan-2-yl)-6,7-dihydropyrano[4,3-c]pyrazole-1(4H)-carboxamide], the EC50 in assay [1] and in assay [2] was less than 1000 nM in each case.

In the case of `CC(C)(C)[C@H](NC(=O)n1nc(-c2ccc(F)c(F)c2)c2c1CCOC2)C(=O)N1CCS(=O)(=O)CC1` [Compound 110, (S)-3-(3,4-difluorophenyl)-N-(3,3-dimethyl-1-oxo-1-thiomorpholinodioxide-butan-2-yl)-6,7-dihydropyrano[4,3-c]pyrazole-1(4H)-carboxamide], the EC50 in assay [1] (setting [3]) was greater than 1000 nM; in assay [2], less than 1000 nM.

On to `CC(C)(C)[C@H](NC(=O)n1nc(-c2ccc(F)c(F)c2)c2c1CCOC2)C(=O)N1CCNC(=O)C1` [Compound 111, (S)-3-(3,4-difluorophenyl)-N-(3,3-dimethyl-1-oxo-1-(3-oxopiperazin-1-yl)butan-2-yl)-6,7-dihydropyrano[4,3-c]pyrazole-1(4H)-carboxamide], for which the EC50 in assay [1] and in assay [2] was less than 1000 nM each time.

Broadly, the EC50 is the concentration needed to bring the measured effect to its halfway point.
